Results taken from patent US12077503B2, “Substituted cyclic amides and their use as herbicides” (FMC CORPORATION, priority 2015, dated 2024).

Tests used:
Format in all cases: in vivo
[1] = system: barnyardgrass (Echinochloa crus-galli); experiment: Test G Pre-Emergence Protocol; conditions: Echinochloa crus-galli, pre-emergence, 312 h, evaluated after 13 days; for pest or weed control at 15.625 g/ha: 15.625 g ai/ha, read-out: Barnyard grass damage rating (100=total damage to plant; 0=no damage to plant); for pest or weed control at 62.5 g/ha: 62.5 g ai/ha, 100=total damage to plant, 0=no damage to plant, read-out: plant damage rating, Barnyardgrass; for pest or weed control at 250 g/ha: 250 g ai/ha, read-out: Barnyardgrass damage rating (100=total damage to plant; 0=no damage to plant)
How it was run: (§1)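 Under a 24/16° C day/night regime with 14 h light and 65% humidity, sown pots were sprayed after one day with compound (15.625, 62.5 or 250 g/ha; 50:50 acetone/water, 0.5% Tween 20). Damage was assessed visually 13 days later, 0 to 100.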

[2] = system: corn (Zea mays); experiment: Test G Pre-Emergence Protocol; conditions: Zea mays, pre-emergence, 312 h, evaluated after 13 days; for plant injury at 15.625 g/ha: 15.625 g ai/ha; for plant injury at 15.625 g/ha / plant injury at 250 g/ha: read-out: Corn damage rating (100=total damage to plant; 0=no damage to plant); for plant injury at 62.5 g/ha: 62.5 g ai/ha, 100=total damage to plant, 0=no damage to plant, read-out: plant damage rating, Corn; for plant injury at 250 g/ha: 250 g ai/ha
How it was run: as §1

[3] = system: giant foxtail (Setaria faberi); experiment: Test G Pre-Emergence Protocol; conditions: Setaria faberi, pre-emergence, 312 h, evaluated after 13 days; for pest or weed control at 15.625 g/ha: 15.625 g ai/ha; for pest or weed control at 15.625 g/ha / pest or weed control at 250 g/ha: read-out: Foxtail, Giant damage rating (100=total damage to plant; 0=no damage to plant); for pest or weed control at 62.5 g/ha: 62.5 g ai/ha, 100=total damage to plant, 0=no damage to plant, read-out: plant damage rating, Foxtail, Giant; for pest or weed control at 250 g/ha: 250 g ai/ha
How it was run: as §1

[4] = system: ivy-leaved morning glory (Ipomoea hederacea); experiment: Test G Pre-Emergence Protocol; conditions: Ipomoea, pre-emergence, 312 h, evaluated after 13 days; for pest or weed control at 15.625 g/ha: 15.625 g ai/ha, read-out: Morning-glory, Ivy-leaved damage rating (100=total damage to plant; 0=no damage to plant); for pest or weed control at 62.5 g/ha: 62.5 g ai/ha, 100=total damage to plant, 0=no damage to plant, read-out: plant damage rating, Morningglory, Ivy-leaved; for pest or weed control at 250 g/ha: 250 g ai/ha, read-out: Morningglory, Ivy-leaved damage rating (100=total damage to plant; 0=no damage to plant)
How it was run: as §1

[5] = system: redroot pigweed (Amaranthus retroflexus); experiment: Test G Pre-Emergence Protocol; conditions: Amaranthus retroflexus, pre-emergence, 312 h, evaluated after 13 days; for pest or weed control at 15.625 g/ha: 15.625 g ai/ha; for pest or weed control at 15.625 g/ha / pest or weed control at 250 g/ha: read-out: Pigweed, Redroot damage rating (100=total damage to plant; 0=no damage to plant); for pest or weed control at 62.5 g/ha: 62.5 g ai/ha, 100=total damage to plant, 0=no damage to plant, read-out: plant damage rating, Pigweed, Redroot; for pest or weed control at 250 g/ha: 250 g ai/ha
How it was run: as §1

[6] = system: velvetleaf (Abutilon theophrasti); experiment: Test G Pre-Emergence Protocol; conditions: Abutilon theophrasti, pre-emergence, 312 h, evaluated after 13 days; for pest or weed control at 15.625 g/ha: 15.625 g ai/ha; for pest or weed control at 15.625 g/ha / pest or weed control at 250 g/ha: read-out: Velvetleaf damage rating (100=total damage to plant; 0=no damage to plant); for pest or weed control at 62.5 g/ha: 62.5 g ai/ha, 100=total damage to plant, 0=no damage to plant, read-out: plant damage rating, Velvetleaf; for pest or weed control at 250 g/ha: 250 g ai/ha
How it was run: as §1

[7] = system: barnyardgrass (Echinochloa crus-galli); experiment: Test G Post-Emergence Protocol; conditions: Echinochloa crus-galli, post-emergence, 312 h; for pest or weed control at 15.625 g/ha: 15.625 g ai/ha, evaluated after 13 days (100=total damage to plant; 0=no damage to plant), read-out: Barnyardgrass damage rating; for pest or weed control at 62.5 g/ha: 62.5 g ai/ha, read-out: Barnyardgrass damage rating (100=total damage to plant; 0=no damage to plant); for pest or weed control at 62.5 g/ha / pest or weed control at 250 g/ha: evaluated after 13 days; for pest or weed control at 250 g/ha: 250 g ai/ha, read-out: damage to plant, Barnyardgrass (100=total damage to plant; 0=no damage to plant)
How it was run: (§2)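 Damage was rated 13 days after treatment from 0 (none) to 100 (plant killed). Compound was applied as a spray at 15.625, 62.5 or 250 g/ha in 50:50 acetone/water containing 0.5% Tween 20, onto 8-day-old potted plants kept in a glasshouse (24/16 °C, 14 h light, 65% humidity).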

[8] = system: corn (Zea mays); experiment: Test G Post-Emergence Protocol; conditions: Zea mays, post-emergence, 312 h; for plant injury at 15.625 g/ha: 15.625 g ai/ha, evaluated after 13 days (100=total damage to plant; 0=no damage to plant), read-out: Corn damage rating; for plant injury at 62.5 g/ha: 62.5 g ai/ha, read-out: Corn damage rating (100=total damage to plant; 0=no damage to plant); for plant injury at 62.5 g/ha / plant injury at 250 g/ha: evaluated after 13 days; for plant injury at 250 g/ha: 250 g ai/ha, read-out: damage to plant, Corn (100=total damage to plant; 0=no damage to plant)
How it was run: as §2

[9] = system: giant foxtail (Setaria faberi); experiment: Test G Post-Emergence Protocol; conditions: Setaria faberi, post-emergence, 312 h; for pest or weed control at 15.625 g/ha: 15.625 g ai/ha, evaluated after 13 days (100=total damage to plant; 0=no damage to plant), read-out: Foxtail, Giant damage rating; for pest or weed control at 62.5 g/ha: 62.5 g ai/ha, read-out: Foxtail, Giant damage rating (100=total damage to plant; 0=no damage to plant); for pest or weed control at 62.5 g/ha / pest or weed control at 250 g/ha: evaluated after 13 days; for pest or weed control at 250 g/ha: 250 g ai/ha, read-out: damage to plant, Foxtail, Giant (100=total damage to plant; 0=no damage to plant)
How it was run: as §2

[10] = system: ivy-leaved morning glory (Ipomoea hederacea); experiment: Test G Post-Emergence Protocol; conditions: Ipomoea, post-emergence, 312 h; for pest or weed control at 15.625 g/ha: 15.625 g ai/ha, evaluated after 13 days (100=total damage to plant; 0=no damage to plant), read-out: Morningglory, Ivy-leaved damage rating; for pest or weed control at 62.5 g/ha: 62.5 g ai/ha, read-out: Morningglory, Ivy-leaved damage rating (100=total damage to plant; 0=no damage to plant); for pest or weed control at 62.5 g/ha / pest or weed control at 250 g/ha: evaluated after 13 days; for pest or weed control at 250 g/ha: 250 g ai/ha, read-out: damage to plant, Morningglory, Ivy-leaved (100=total damage to plant; 0=no damage to plant)
How it was run: as §2

[11] = system: redroot pigweed (Amaranthus retroflexus); experiment: Test G Post-Emergence Protocol; conditions: Amaranthus retroflexus, post-emergence, 312 h; for pest or weed control at 15.625 g/ha: 15.625 g ai/ha, evaluated after 13 days (100=total damage to plant; 0=no damage to plant), read-out: Pigweed, Redroot damage rating; for pest or weed control at 62.5 g/ha: 62.5 g ai/ha, read-out: Pigweed, Redroot damage rating (100=total damage to plant; 0=no damage to plant); for pest or weed control at 62.5 g/ha / pest or weed control at 250 g/ha: evaluated after 13 days; for pest or weed control at 250 g/ha: 250 g ai/ha, read-out: damage to plant, Pigweed, Redroot (100=total damage to plant; 0=no damage to plant)
How it was run: as §2

[12] = system: velvetleaf (Abutilon theophrasti); experiment: Test G Post-Emergence Protocol; conditions: Abutilon theophrasti, post-emergence, 312 h; for pest or weed control at 15.625 g/ha: 15.625 g ai/ha, evaluated after 13 days (100=total damage to plant; 0=no damage to plant), read-out: Velvetleaf damage rating; for pest or weed control at 62.5 g/ha: 62.5 g ai/ha, read-out: Velvetleaf damage rating (100=total damage to plant; 0=no damage to plant); for pest or weed control at 62.5 g/ha / pest or weed control at 250 g/ha: evaluated after 13 days; for pest or weed control at 250 g/ha: 250 g ai/ha, read-out: damage to plant, Velvetleaf (100=total damage to plant; 0=no damage to plant)
How it was run: as §2

| SMILES | pest or weed control at 15.625 g/ha [1] | pest or weed control at 62.5 g/ha [1] | pest or weed control at 250 g/ha [1] | plant injury at 15.625 g/ha [2] | plant injury at 62.5 g/ha [2] | plant injury at 250 g/ha [2] | pest or weed control at 15.625 g/ha [3] | pest or weed control at 62.5 g/ha [3] | pest or weed control at 250 g/ha [3] | pest or weed control at 62.5 g/ha [4] | pest or weed control at 250 g/ha [4] | pest or weed control at 15.625 g/ha [5] | pest or weed control at 62.5 g/ha [5] | pest or weed control at 250 g/ha [5] | pest or weed control at 15.625 g/ha [6] | pest or weed control at 62.5 g/ha [6] | pest or weed control at 250 g/ha [6] | pest or weed control at 15.625 g/ha [7] | pest or weed control at 62.5 g/ha [7] | pest or weed control at 250 g/ha [7] | other results |
| --- | --- | --- | --- | --- | --- | --- | --- | --- | --- | --- | --- | --- | --- | --- | --- | --- | --- | --- | --- | --- | --- |
| Cc1c(Cl)ncnc1NC(=O)[C@@H]1C(=O)N(C)C[C@H]1c1ccc(C(F)(F)F)cc1 (racemic) [Compound 1581] | 0% | 0% | 0% | 0% | 0% | 0% | 0% | 0% | 0% | 0% | 0% | 0% | 0% | 0% | 0% | 0% | 0% | 0% | 0% | 10% | pest or weed control at 15.625 g/ha [4]: 0%; plant injury at 15.625 g/ha [8]: 0%; plant injury at 62.5 g/ha [8]: 0%; plant injury at 250 g/ha [8]: 0%; pest or weed control at 15.625 g/ha [9]: 0%; pest or weed control at 62.5 g/ha [9]: 0%; pest or weed control at 250 g/ha [9]: 0%; pest or weed control at 15.625 g/ha [10]: 0%; pest or weed control at 62.5 g/ha [10]: 0%; pest or weed control at 250 g/ha [10]: 0%; pest or weed control at 15.625 g/ha [11]: 0%; pest or weed control at 62.5 g/ha [11]: 0%; pest or weed control at 250 g/ha [11]: 0%; pest or weed control at 15.625 g/ha [12]: 0%; pest or weed control at 62.5 g/ha [12]: 0%; pest or weed control at 250 g/ha [12]: 0% |
| Cc1ccc(NC(=O)[C@@H]2C(=O)N(C)C[C@H]2c2ccc(C(F)(F)F)cc2)c(Cl)c1 (racemic) [Compound 1590] | 0% | 0% | 60% | 0% | 0% | 0% | 0% | 50% | 80% | 0% | 0% | 0% | 0% | 0% | 0% | 0% | 0% | 0% | 0% | 30% | pest or weed control at 15.625 g/ha [4]: 0%; plant injury at 15.625 g/ha [8]: 0%; plant injury at 62.5 g/ha [8]: 0%; plant injury at 250 g/ha [8]: 0%; pest or weed control at 15.625 g/ha [9]: 0%; pest or weed control at 62.5 g/ha [9]: 70%; pest or weed control at 250 g/ha [9]: 80%; pest or weed control at 15.625 g/ha [10]: 0%; pest or weed control at 62.5 g/ha [10]: 20%; pest or weed control at 250 g/ha [10]: 30%; pest or weed control at 15.625 g/ha [11]: 0%; pest or weed control at 62.5 g/ha [11]: 0%; pest or weed control at 250 g/ha [11]: 0%; pest or weed control at 15.625 g/ha [12]: 0%; pest or weed control at 62.5 g/ha [12]: 0%; pest or weed control at 250 g/ha [12]: 0% |
| CN1C[C@@H](c2ccc(C(F)(F)F)cc2)[C@H](C(=O)Nc2cc(C(C)(C)C)[nH]n2)C1=O (racemic) [Compound 1545] | 0% | 0% | 0% | 0% | 0% | 0% | 0% | 0% | 0% | 0% | 0% | 0% | 0% | 0% | 0% | 0% | 0% | 0% | 0% | 0% | plant injury at 15.625 g/ha [8]: 0%; plant injury at 62.5 g/ha [8]: 0%; plant injury at 250 g/ha [8]: 0%; pest or weed control at 15.625 g/ha [9]: 0%; pest or weed control at 62.5 g/ha [9]: 0%; pest or weed control at 250 g/ha [9]: 0%; pest or weed control at 15.625 g/ha [10]: 0%; pest or weed control at 62.5 g/ha [10]: 0%; pest or weed control at 250 g/ha [10]: 0%; pest or weed control at 15.625 g/ha [11]: 0%; pest or weed control at 62.5 g/ha [11]: 0%; pest or weed control at 250 g/ha [11]: 0%; pest or weed control at 15.625 g/ha [12]: 0%; pest or weed control at 62.5 g/ha [12]: 0%; pest or weed control at 250 g/ha [12]: 0% |
